Reference: ChEMBL document CHEMBL2390884, “Design, synthesis and antiproliferative activity studies of novel 1,2,3-triazole-dithiocarbamate-urea hybrids” (Eur J Med Chem, 2013)

How the values were obtained:
Type in all cases: functional, cell-based
[1] = system: MCF7; assay: Cytotoxicity against human MCF7 cells after 72 hrs by MTT assay; details: MCF7, 72 h
[2] = Cytotoxicity against human EC9706 cells after 72 hrs by MTT assay; details: EC9706, 72 h
[3] = system: SMMC-7721; assay: Cytotoxicity against human SMMC7721 cells after 72 hrs by MTT assay; details: SMMC-7721, 72 h
[4] = system: MGC-803; assay: Cytotoxicity against human MGC803 cells after 72 hrs by MTT assay; details: MGC-803, 72 h

SMILES	IC50 [1] [µM]	IC50 [2] [µM]	IC50 [3] [µM]	IC50 [4] [µM]
O=C(NC1CCCCC1)N1CCN(C(=S)SCc2cn(Cc3ccccc3F)nn2)CC1	85	84.9	> 128	36.5
CC(C)NC(=O)N1CCN(C(=S)SCc2cn(Cc3ccc(Cl)cc3)nn2)CC1	> 128	25.6	> 128	19.9
NC(=O)N1CCN(C(=S)SCc2cn(Cc3ccc(F)cc3)nn2)CC1	22.1	62.7	> 128	9.33
CC(C)(C)NC(=O)N1CCN(C(=S)SCc2cn(Cc3ccccc3F)nn2)CC1	18.8	87.8	> 128	40.7
Cc1ccc(Cn2cc(CSC(=S)N3CCN(C(=O)NC(C)C)CC3)nn2)cc1	4.63	> 128	> 128	16.6
CCNC(=O)N1CCN(C(=S)SCc2cn(Cc3ccc(Cl)cc3)nn2)CC1	> 128	> 128	> 128	35.4
O=C(NCc1ccccc1)N1CCN(C(=S)SCc2cn(Cc3ccccc3F)nn2)CC1	38.1	38.1	> 128	13.3
NC(=O)N1CCN(C(=S)SCc2cn(Cc3ccc(Cl)cc3)nn2)CC1	> 128	> 128	> 128	> 128
CCN(C)C(=O)N1CCN(C(=S)SCc2cn(Cc3ccccc3F)nn2)CC1	7.21	15.6	19.7	5.86
CCN(C)C(=O)N1CCN(C(=S)SCc2cn(Cc3ccc(C)cc3)nn2)CC1	40.1	70.6	> 128	8.27
CCNC(=O)N1CCN(C(=S)SCc2cn(Cc3ccc(C)cc3)nn2)CC1	> 128	> 128	> 128	19.8
CCN(C)C(=O)N1CCN(C(=S)SCc2cn(Cc3ccc(F)cc3)nn2)CC1	2.15	14.3	23.7	1.55
CCNC(=O)N1CCN(C(=S)SCc2cn(Cc3cc(OC)c(OC)c(OC)c3)nn2)CC1	> 128	> 128	> 128	101
O=c1[nH]cc(F)c(=O)[nH]1 [FLUOROURACIL]	7.33	0.32	26.7	7.14
